Assay results as given in US20120129927A1, “New Anthraquinone Derivatives” (SEALIFE PHARMA GMBH, priority 2009, published 2012).
Converted amounts (≈) assume the structure as drawn. “Also recorded” adds a separate entry of the source. Like-named read-outs stand apart in the source and are kept apart here.

Columns and labels:
[1] = system: E. coli; experiment: MIC test (titration method, EUCAST); format: cell-based; settings: Escherichia coli, read-out: MHK (MIC) EC
Description: (§1) The activities of the novel compounds were tested in two different screening systems. The antibacterial and antifungal activities were examined by means of an MIC test, MIC standing for “minimal inhibitory concentration” and referring to the lowest concentration of a substance at which no proliferation of microorganisms can be observed with the naked eye. The MIC is determined by means of a so called titration method in which the substance is diluted and, subsequently, the pathogen is added to it.
(§2) Usually, this method is applied in order to determine the concentration of an antibiotic which only just inhibits the growth of a bacterial strain. The MIC is indicated in micrograms per milliliter (μg/ml), and the dilutions are conventionally carried out in log 2 steps. Herein, a starting concentration of 250 μg/ml was diluted several times, to the double volume in each case, resulting in test concentrations of 250 μg/ml, 125 μg/ml, 62.5 μg/ml, 31.2 μg/ml, 15.6 μg/ml, 7.8 μg/ml, etc. Thus, lower values indicate a better activity as an anti-infective.
(§3) The tests were carried out according to the standards of EUCAST (European Committee for Antimicrobial Susceptibility Testing) and according to the AFST-protocol (“Antifungal Susceptibility Testing” protocol) of the European Society of Clinical Microbiology and Infectious Diseases (ESCMID).
(§4) In the following Table 3, the test results indicating the anti-infective action of 3-O-acetyl altersolanol M, alterporriol I and J as well as of some known and structurally similar comparative substances against some multi-resistant bacteria and fungi (all of which were kindly placed at our disposal by Prof Georgopulos from the Medical University of Vienna). The data constituting averages of the values obtained in multiple test runs.

[2] = system: Enterococcus faecalis or faecium; experiment: MIC test (titration method, EUCAST); format: cell-based; settings: for MIC: read-out: MHK (MIC) EK
Description: as §1, §2, §3, §4

[3] = system: Staphylococcus epidermis; experiment: MIC test (titration method, EUCAST); format: cell-based; settings: for MIC: read-out: MHK (MIC) SE
Description: as §1, §2, §3, §4

[4] = system: Streptococcus pneumoniae; experiment: MIC test (titration method, EUCAST); format: cell-based; settings: for MIC: read-out: MHK (MIC) STR
Description: as §1, §2, §3, §4

[5] = system: methicillin-resistant Staphylococcus aureus; experiment: MIC test (titration method, EUCAST); format: cell-based; settings: for MIC: MRSA, read-out: MHK (MIC) MRSA
Description: as §1, §2, §3, §4

[6] = system: Aspergillus fumigatus or faecalis; experiment: MIC test (AFST protocol); format: cell-based; settings: multi-resistant Aspergillus fumigatus or faecalis, averages of multiple test runs; for MIC: read-out: MHK (MIC) ASP
Description: as §1, §2, §3, §4

[7] = system: bacteria and fungi; settings: Aly et al., Phytochemistry 69; cited from earlier work
[8] = Yagi et al., Phytochemistry 34(4); cited from earlier work
[9] = system: Klebsiella sp.; experiment: MIC test (titration method, EUCAST); format: cell-based; settings: multi-resistant Klebsiella sp., averages of multiple test runs
Description: as §1, §2, §3, §4

[10] = system: Pseudomonas aeruginosa; experiment: MIC test (titration method, EUCAST); format: cell-based; settings: multi-resistant Pseudomonas aeruginosa, averages of multiple test runs
Description: as §1, §2, §3, §4

[11] = system: melanoma cells; experiment: Alamar Blue assay using melanoma cells; format: cell-based; settings: for inhibition at 10 µg/mL: read-out: inhibition / reduction of the number of melanoma cells
Description: In this test, the dye resazurin is used as an indicator for measuring the cytotoxicity of substances. […] Depending on the degree of their toxicity, cytotoxic agents decelerate or stop this reduction.
In the course of this experiment, melanoma cells were treated with several concentrations of 3-O-acetyl altersolanol M, i.e. with 1, 10, and 50 μg/ml, with altersolanol K and alterporriol F as comparative substances, as well as with alterporriol I+J, i.e. compound (5) of the present invention, at respective concentrations of 10 μg/ml, and incubated for 48 h, whereafter the samples' fluorescence was determined spectrophotometrically at 570/600 nm, the fluorescence being proportional to the number of surviving cells in the samples.
The measurement results were related to the fluorescence of a blank, to which no cytotoxic agent had been added, and are shown in a graph in FIG. 1.

[12] = Electrical Cell Substrate Impedance Sensing (ECIS) test; format: cell-based; settings: results not indicated, comparison only
[13] = system: melanoma cells; experiment: Three-dimensional tumor test in matrix gel; format: cell-based; settings: 30, 50 or 3,000 μg/ml, 37° C.
Description: In addition to the above two-dimensional test, the cytotoxic action of 3-O-acetyl altersolanol M was also examined in an innovative three-dimensional test system. In this test, small tumors are grown in a matrix gel, in which the activity of an anti-cancer agent may be directly tested by adding said agent at different concentrations. A blank, i.e. melanoma cells without any cytotoxic agent, and an equal amount of melanoma cells together with 30, 50 or 3,000 μg/ml of 3-O-acetyl altersolanol M were incubated in the matrix gel for 120 hours at 37° C.

[14] = system: Gram-positive bacteria and the Gram-negative species Pseudomonas aeruginosa; settings: Okamura et al., Phytochemistry 42(1); cited from earlier work
[15] = multi-resistant E. coli, averages of multiple test runs
[16] = multi-resistant Enterococcus faecalis or faecium, averages of multiple test runs
[17] = multi-resistant Staphylococcus epidermis, averages of multiple test runs
[18] = multi-resistant Streptococcus pneumoniae, averages of multiple test runs
[19] = methicillin-resistant Staphylococcus aureus, averages of multiple test runs
[20] = 10 μg/ml, 48 h, relative to blank

## COc1cc(O)c(C(=O)O)c(-c2cc(O)c(O)cc2C)c1 [Altenusin]
[1]
  MIC: 62.5 µg/mL (≈ 215 µM)
[2]; Enterococcus faecalis
  MIC: 62.5 µg/mL (≈ 215 µM)
[3]; Staphylococcus
  MIC: 31.2 µg/mL (≈ 107 µM)
[4]; Streptococcus pneumoniae
  MIC: 31.2 µg/mL (≈ 107 µM)
[5]; Staphylococcus aureus
  MIC: 31.2 µg/mL (≈ 107 µM)

## COc1cc(O)c2c(c1)C(=O)C1=C(C2=O)[C@H](O)[C@@H](O)[C@@](C)(O)[C@@H]1O [Altersolanol A, 7-methoxy-2-methyl-(1R,2S,3R,4S)-1,2,3,4-tetrahydro-1,2,3,4,5-pentahydroxy-anthracene-9,10-dione]
[1]; [15]
  MIC: 62.5 µg/mL (≈ 186 µM)
[2]; [16]
  MIC: 15.6 µg/mL (≈ 46.4 µM)
[3]; [17]
  MIC: 7.8 µg/mL (≈ 23.2 µM)
[4]; [18]
  MIC: 7.8 µg/mL (≈ 23.2 µM)
[5]; [19]
  MIC: 7.8 µg/mL (≈ 23.2 µM)
[6]
  MIC: 7.8 µg/mL (≈ 23.2 µM)
[7]
  activity against bacteria and fungi: the most efficient of the tested substances
[8]
  anti-microbial activity: anti-microbial activity

## COc1cc(O)c2c(c1)C(=O)[C@H]1C[C@](C)(O)[C@H](O)C[C@@H]1[C@H]2O [Altersolanol J]
[2]; [16]
  MHK (MIC) EK: 31.2 µg/mL
[9]
  MHK (MIC) KL: 125 µg/mL
[3]; [17]
  MHK (MIC) SE: 62.5 µg/mL
[4]; [18]
  MHK (MIC) STR: 15.6 µg/mL
[5]; [19]
  MHK (MIC) MRSA: 62.5 µg/mL
[6]
  MHK (MIC) ASP: 125 µg/mL
[7]
  activity against bacteria and fungi: do not show any activity against bacteria and fungi

## COc1cc(O)c2c(c1)[C@H](O)[C@@H]1[C@@H](C2=O)[C@H](O)[C@@H](O)[C@@](C)(O)[C@@H]1O [Ampelanol]
[7]
  activity against bacteria and fungi: do not show any activity against bacteria and fungi

## COC1=CC(=O)c2c(O)c3c(c(O)c2C1=O)C[C@](C)(O)[C@H](O)[C@H]3O [Bostrycin]
[3]; [17]
  MIC: 125 µg/mL (≈ 372 µM)
[4]; [18]
  MIC: 62.5 µg/mL (≈ 186 µM)
[5]; [19]
  MIC: 125 µg/mL (≈ 372 µM)

## COc1cc(O)c2c(c1)C(=O)C1=C(C2=O)[C@@H](O)[C@H](OC(C)=O)[C@@](C)(O)[C@@H]1O [Example 1, (1R,2S,3S,4R)-3-acetoxy-1,2,4,5-tetrahydroxy-7-methoxy-2-methyl-1,2,3,4-tetrahydroanthracene-9,10-dione]
[1]; [15]
  MIC: 125 µg/mL (≈ 330 µM)
[2]; [16]
  MIC: 7.8 µg/mL (≈ 20.6 µM)
[9]; read-out: MHK (MIC) KL
  MIC: 125 µg/mL (≈ 330 µM)
[10]; read-out: MHK (MIC) PS
  MIC: 125 µg/mL (≈ 330 µM)
[3]; [17]
  MIC: 7.8 µg/mL (≈ 20.6 µM)
[4]; [18]
  MIC: 7.8 µg/mL (≈ 20.6 µM)
[5]; [19]
  MIC: 7.8 µg/mL (≈ 20.6 µM)
[6]
  MIC: 62.5 µg/mL (≈ 165 µM)
[11]; 1 μg/ml, 48 h, relative to blank, read-out: inhibition of the number of surviving cells
  inhibition at 1 µg/mL: > 10%
[11]; [20]
  inhibition at 10 µg/mL: ~50%
[11]; 50 μg/ml, 48 h
  surviving cells (in words): hardly possible to detect any surviving cells
[11]; Alamar Blue, melanoma cells
  cytotoxic effectiveness relative to alterporriol I/J: at least 10 times
[12]
  ECIS result (in words): clearly better results than alterporriol I/J
[13]; 24 hours
  tumor appearance after 24 hours: signs of degeneration
[13]; 120 hours
  tumor size after 120 hours: clearly reduced in size

## COc1cc(O)c2c(c1-c1c(OC)cc(O)c3c1C(=O)c1cc(C)c(O)c(O)c1C3=O)C(=O)C1=C(C2=O)[C@H](O)[C@@H](O)[C@@](C)(O)[C@H]1O [Example 2, 8-(4,5,6-trihydroxy-7-methyl-2-methoxy-9,10-dioxo-9H,10H-anthracen-1-yl)-(1S,2S,3R,4S)-1,2,3,4,5-pentahydroxy-7-methoxy-2-methyl-1,2,3,4-tetrahydro-9H,10H-anthracene-9,10-dione]
[2]; [16]
  MIC: 7.8 µg/mL (≈ 12.3 µM)
[3]; [17]
  MIC: 7.8 µg/mL (≈ 12.3 µM)
[4]; [18]
  MIC: 7.8 µg/mL (≈ 12.3 µM)
[5]; [19]
  MIC: 7.8 µg/mL (≈ 12.3 µM)
[6]
  MIC: 125 µg/mL (≈ 197 µM)
[11]; 10 μg/ml, 48 h
  result compared with comparative substances (in words): slightly better results than the two comparative examples
[11]; [20]
  inhibition at 10 µg/mL: > 10%

## COc1cc(O)c2c(c1)C(=O)c1cc(C)c(O)cc1C2=O [Macrosporin]
[1]; [15]
  MIC: 62.5 µg/mL (≈ 220 µM)
[3]; [17]
  MIC: 62.5 µg/mL (≈ 220 µM)
[5]; [19]
  MIC: 62.5 µg/mL (≈ 220 µM)

## COc1cc(O)c2c(c1-c1c(OC)cc(O)c3c1C(=O)C1=C(C3=O)[C@H](O)[C@@H](O)[C@@](C)(O)[C@@H]1O)C(=O)C1=C(C2=O)[C@H](O)[C@@H](O)[C@@](C)(O)[C@@H]1O [alterporriol D]
[7]
  activity against bacteria and fungi: do not show any activity against bacteria and fungi

## COc1cc(O)c2c(c1)C(=O)C1=C(C[C@@H](O)[C@@](C)(O)C1)C2=O [altersolanol B]
[8]
  anti-microbial activity: anti-microbial activity

## COc1cc(O)c2c(c1)C(=O)C1=C(C[C@@H](O)[C@@](C)(O)[C@@H]1O)C2=O [altersolanol C]
[8]
  anti-microbial activity: anti-microbial activity

## COc1cc(O)c2c(c1)[C@H](O)[C@H]1C[C@](C)(O)[C@H](O)C[C@@H]1C2=O [tetrahydroaltersolanol B]
[14]
  effect against Gram-positive bacteria and Pseudomonas aeruginosa: do not disclose any effect

## Alterporriol A + B
[2]; [16]
  MHK (MIC) EK: 15.6 µg/mL
[3]; [17]
  MHK (MIC) SE: 15.6 µg/mL
[4]; [18]
  MHK (MIC) STR: 7.8 µg/mL
[5]; [19]
  MHK (MIC) MRSA: 15.6 µg/mL
[6]
  MHK (MIC) ASP: 62.5 µg/mL

## Indole carbaldehyde (carboxaldehyde)
[10]
  MHK (MIC) PS: 125 µg/mL
[4]; [18]
  MHK (MIC) STR: 62.5 µg/mL

## Macrosporin sulfate
[4]; [18]
  MHK (MIC) STR: 31.2 µg/mL

## alterporriol E
[7]
  activity against bacteria and fungi: do not show any activity against bacteria and fungi

## altersolanol D
[8]
  anti-microbial activity: completely ineffective

## altersolanol E
[8]
  anti-microbial activity: anti-microbial activity; also recorded: completely ineffective

## altersolanol F
[8]
  anti-microbial activity: completely ineffective
